Data as given in EP4741383A1, “COMPOUND AND USE THEREOF AS ANTI-CANCER DRUG” (Tyligand Bioscience (Shanghai) Limited, priority 2023, dated 2025).

target: T1, SHP2 enzyme (catalytic domain, amino acid sequence 224-528) (Homo sapiens, UniProt Q06124); assay: SHP2 enzyme inhibition assay (DiFMUP substrate, fluorescence); format: biochemical; settings: SHP2 catalytic domain, DiFMUP substrate, 30 min pre-incubation; read-out: S HP2 I C50
T1 construct: purchased GenScript
T1 sequence (Q06124 224-528): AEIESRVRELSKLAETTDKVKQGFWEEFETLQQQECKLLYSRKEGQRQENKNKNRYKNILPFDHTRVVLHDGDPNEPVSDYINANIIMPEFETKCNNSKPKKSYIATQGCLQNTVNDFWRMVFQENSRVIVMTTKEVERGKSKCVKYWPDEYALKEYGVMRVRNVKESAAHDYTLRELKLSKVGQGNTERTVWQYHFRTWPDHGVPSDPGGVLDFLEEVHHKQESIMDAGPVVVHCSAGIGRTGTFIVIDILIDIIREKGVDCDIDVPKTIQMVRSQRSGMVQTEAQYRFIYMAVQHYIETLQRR
Procedure: This experiment evaluates the inhibitory effect of the test compounds on SHP2 enzyme activity by detecting the reaction between the human recombinant protein SHP2 enzyme and the substrate.
The stock solutions of the reaction buffer components were thawed and mixed homogeneously at room temperature, to prepare the reaction buffer (55 mM HEPES pH = 7.2 (Sigma, Cat. No. #PHR1428), 100 mM NaCl (Beyotime, Cat. No. #ST374, 5 M solution), 0.5 mM EDTA (Beyotime, Cat. No. #ST066), 1 mM DL-Dithiothreitol (DTT) (Sigma, Cat. No. #D9779), 0.002% BSA (Solarbio, Cat. No. #A8010), 0.001% Brij35 (Brij® L23 solution (Brij35) (Sigma, Cat. No. #B4184)). The SHP2 enzyme (catalytic domain, amino acid sequence 224-528, expressed and purified by GenScript) was thawed slowly on ice. 1 µL of this solution (1.37 mg/mL) was added to 386 µL of the reaction buffer to dilute it to 100 nM. Then, 120 µL of the 100 nM SHP2 enzyme solution was added to 2880 µL of reaction buffer to prepare a 4 nM SHP2 enzyme working solution. The test compounds and the specific inhibitor of SHP2 (11a-1, used as a positive control, Zeng, L. et al., J. Med. Chem. 2014, 57, 6594-6609) were prepared as 10 mM DMSO solutions. 10 µL of the 10 mM compound solution was mixed with 20 µL of DMSO solution, and then serially diluted 3-fold, resulting in 10 concentrations. 1 µL of the serially diluted solution was mixed with 99 µL of reaction buffer to obtain a 10-fold diluted compound working solution.
A 96-well black half-area microplate (Greiner, catalog #675076) was used. 25 µL of 4 nM SHP2 enzyme working solution and 5 µL of 10x compound working solution were added to each well and incubated at room temperature for 30 minutes. 15 µL of DiFMUP substrate (Thermo Fisher Scientific, catalog #D6567) was added to 2985 µL of reaction buffer to prepare a 50 µM substrate working solution. After incubation of the compounds and SHP2 enzyme, 20 µL of the 50 µM substrate working solution was added to each well and incubated at room temperature for 5 minutes. The plate was then read on a multi-mode microplate reader (BioTek, Synergy H1) at 340 nm/450 nm fluorescence.
Data were analyzed using GraphPad Prism 9.0 software. A non-linear S-curve regression dose-response-inhibition equation was used to fit the data and generate the dose-response curve, from which the IC50 value was calculated. [formula]

| Structure (SMILES) | IC50 [nM] |
| --- | --- |
| O=C(Nc1ccc(-c2cc3cc(F)c(-c4nnn[nH]4)cc3n2C2CCC2)cc1)C(=O)Nc1ccc(N2CC3(CCC(O)CC3)C2)cc1 [Example 81] | 70 |
| CC(C)(O)C1CCC2(CC1)CN(c1ccc(NC(=O)C(=O)Nc3ccc(-c4cc5cc(F)c(-c6nnn[nH]6)cc5n4C4(C)CCC4)cc3)cc1)C2 [Example 88] | 148 |
| CC1(n2c(-c3ccc(NC(=O)C(=O)Nc4ccc(N5CCC6(CC(O)C6)C5)cc4)cc3)cc3cc(F)c(-c4nnn[nH]4)cc32)CCC1 (stereo not shown) [Example 90] | 139 |
| O=C(Nc1ccc(-c2ccsc2)cc1)C(=O)Nc1ccc(-c2cc3ccc(-c4cnn[nH]4)cc3n2C2CCC2)cc1 [Example 121] | > 10000 |
| N#Cc1nnc(-c2cc3c(cc2F)cc(-c2ccc(NC(=O)C(=O)Nc4ccc(N5CCC6(CCOC6)CC5)cc4)cc2)n3C2CCC2)[nH]1 [Example 127] | 144 |
| Cc1nnc(-c2cc3c(cc2F)cc(-c2ccc(NC(=O)C(=O)Nc4ccc(N5CCC6(CCOC6)CC5)cc4)cc2)n3C2CCC2)[nH]1 [Example 128] | > 10000 |

More lines, in order of falling IC50, values ahead:

| IC50 [nM] | Structure (SMILES) |
| --- | --- |
| 105 | O=C(Nc1ccc(-c2cc3cc(F)c(-c4nnn[nH]4)cc3n2C2CCC2)cc1)C(=O)Nc1ccc(N2CCC3(CCC(CO)CC3)CC2)cc1 [Example 112] |
| 89 | CC(C)(O)C1CCC2(CC1)CN(c1ccc(NC(=O)C(=O)Nc3ccc(-c4cc5cc(F)c(-c6nnn[nH]6)cc5n4C4CCC4)cc3)cc1)C2 [Example 87] |
| 86 | CC1(O)CCC2(CCN(c3ccc(NC(=O)C(=O)Nc4ccc(-c5cc6cc(F)c(-c7nnn[nH]7)cc6n5C5(C)CCC5)cc4)cc3)CC2)C1 (stereo not shown) [Example 105] |
| 60 | CC1(O)CCC2(CC1)CN(c1ccc(NC(=O)C(=O)Nc3ccc(-c4cc5cc(F)c(-c6nnn[nH]6)cc5n4C4(C)CCC4)cc3)cc1)C2 [Example 84] |
| 56 | CC1(O)CCC2(CCN(c3ccc(NC(=O)C(=O)Nc4ccc(-c5cc6cc(F)c(-c7nnn[nH]7)cc6n5C5CCC5)cc4)cc3)C2)C1 (stereo not shown) [Example 93] |
| 47 | O=C(Nc1ccc(-c2cc3cc(F)c(-c4nnn[nH]4)cc3n2C2CCC2)cc1)C(=O)Nc1ccc(N2CC3(CCC(CO)CC3)C2)cc1 [Example 85] |
| 23 | O=C(Nc1ccc(-c2cc3cc(F)c(-c4nnn[nH]4)c(F)c3n2C2CCC2)cc1)C(=O)Nc1ccc(N2CCC3(CCOC3)CC2)cc1 [Example 126] |
